Assay results as given in ChEMBL document CHEMBL1127284, “The synthesis of 2,3-dihydro-4(1H)-quinazolinone angiotensin II receptor antagonists” (Bioorg Med Chem Lett, 1994).

These compounds were tested against T1, Angiotensin II receptor (Rattus norvegicus, UniProt P29089+P25095+P35351) (assay: Concentration required for 50% inhibition of binding against Angiotensin II receptor in the rat adrenal cortex tissue). Details: not given.
T1 sequence (P29089 whole entry): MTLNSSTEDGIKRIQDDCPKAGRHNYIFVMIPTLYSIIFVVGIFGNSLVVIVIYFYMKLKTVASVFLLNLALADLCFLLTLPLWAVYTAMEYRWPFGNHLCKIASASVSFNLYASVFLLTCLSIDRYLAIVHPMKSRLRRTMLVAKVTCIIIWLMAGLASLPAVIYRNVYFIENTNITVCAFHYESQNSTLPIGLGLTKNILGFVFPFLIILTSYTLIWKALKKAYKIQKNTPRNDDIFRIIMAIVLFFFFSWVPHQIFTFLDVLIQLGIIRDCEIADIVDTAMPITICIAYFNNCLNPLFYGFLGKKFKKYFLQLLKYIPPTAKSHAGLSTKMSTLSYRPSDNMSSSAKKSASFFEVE
T1 sequence (P25095 whole entry): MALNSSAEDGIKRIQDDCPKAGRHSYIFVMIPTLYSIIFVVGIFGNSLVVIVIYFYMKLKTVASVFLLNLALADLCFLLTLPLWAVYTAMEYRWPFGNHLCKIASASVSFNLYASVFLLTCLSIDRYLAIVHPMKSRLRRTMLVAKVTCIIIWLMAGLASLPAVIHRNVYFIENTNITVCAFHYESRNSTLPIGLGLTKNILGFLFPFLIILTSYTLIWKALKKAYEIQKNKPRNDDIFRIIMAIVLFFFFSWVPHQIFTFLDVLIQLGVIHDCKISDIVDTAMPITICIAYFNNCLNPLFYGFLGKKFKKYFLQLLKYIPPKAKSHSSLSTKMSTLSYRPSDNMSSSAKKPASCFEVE
T1 sequence (P35351 whole entry): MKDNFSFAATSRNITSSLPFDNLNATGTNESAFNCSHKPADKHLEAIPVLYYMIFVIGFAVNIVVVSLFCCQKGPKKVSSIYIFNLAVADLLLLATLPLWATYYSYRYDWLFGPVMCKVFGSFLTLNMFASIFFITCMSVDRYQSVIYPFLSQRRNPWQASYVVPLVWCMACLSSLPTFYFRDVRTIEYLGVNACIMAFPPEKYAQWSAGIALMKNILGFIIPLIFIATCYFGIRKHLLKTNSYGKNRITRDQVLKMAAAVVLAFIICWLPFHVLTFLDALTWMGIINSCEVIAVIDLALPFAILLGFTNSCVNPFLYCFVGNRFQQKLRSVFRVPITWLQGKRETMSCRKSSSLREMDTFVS
Format: tissue-based

Point of comparison: `CCCC1N(Cc2ccc(-c3ccccc3-c3nn[nH]n3)cc2)C(=O)c2ccccc2N1Cc1ccccc1` (stereo not given), IC50 100 µM. Against it:
- CC1Nc2ccccc2C(=O)N1Cc1ccc(-c2ccccc2-c2nn[nH]n2)cc1 (stereo not given) — within 1.5-fold, 90 µM
- CCCCC1N(Cc2ccc(-c3ccccc3-c3nn[nH]n3)cc2)C(=O)c2ccccc2N1C (stereo not given) — 91-fold lower, 1.1 µM
- CCC1Nc2ccc(C)cc2C(=O)N1Cc1ccc(-c2ccccc2-c2nn[nH]n2)cc1 (stereo not given) — 5-fold lower, 20 µM
- CCCCC1N(Cc2ccc(-c3ccccc3-c3nn[nH]n3)cc2)C(=O)c2cc(C(C)(C)OC)ccc2N1C (stereo not given) — 50-fold lower, 2 µM
- CCCCC1Nc2ccc(CC)cc2C(=O)N1Cc1ccc(-c2ccccc2-c2nn[nH]n2)cc1 (stereo not given) — 270-fold lower, 0.37 µM
- CCCCC1Nc2ccc(C(C)C)cc2C(=O)N1Cc1ccc(-c2ccccc2-c2nn[nH]n2)cc1 (stereo not given) — 1100-fold lower, 0.09 µM
- CCCCC1(CCCC)Nc2ccccc2C(=O)N1Cc1ccc(-c2ccccc2-c2nn[nH]n2)cc1 — 7.7-fold lower, 13 µM
- CCC1Nc2ccccc2C(=O)N1Cc1ccc(-c2ccccc2-c2nn[nH]n2)cc1 (stereo not given) — 3.7-fold lower, 27 µM
- CCCCC1Nc2ccc(C(C)(C)OC)cc2C(=O)N1Cc1ccc(-c2ccccc2-c2nn[nH]n2)cc1 (stereo not given) — 37-fold lower, 2.7 µM
- CCCC1Nc2ccc(C(C)C)cc2C(=O)N1Cc1ccc(-c2ccccc2-c2nn[nH]n2)cc1 (stereo not given) — 8.3-fold lower, 12 µM
- CCCC1Nc2ccccc2C(=O)N1Cc1ccc(-c2ccccc2-c2nn[nH]n2)cc1 (stereo not given) — 190-fold lower, 0.54 µM
- CCCC1N(Cc2ccc(-c3ccccc3-c3nn[nH]n3)cc2)C(=O)c2ccccc2N1CC (stereo not given) — 13-fold lower, 7.5 µM
- CCCCC1Nc2ccccc2C(=O)N1Cc1ccc(-c2ccccc2-c2nn[nH]n2)cc1 (stereo not given) — 7.1-fold lower, 14 µM
- CCCCC1Nc2ccc(C(=O)OC)cc2C(=O)N1Cc1ccc(-c2ccccc2-c2nn[nH]n2)cc1 (stereo not given) — 24-fold lower, 4.1 µM
- CCC1Nc2ccc(C(C)C)cc2C(=O)N1Cc1ccc(-c2ccccc2-c2nn[nH]n2)cc1 (stereo not given) — 2.2-fold lower, 45 µM
- CCCCC1N(Cc2ccc(-c3ccccc3-c3nn[nH]n3)cc2)C(=O)c2cc(C(C)C)ccc2N1C (stereo not given) — 150-fold lower, 0.65 µM
- CCCC1N(Cc2ccc(-c3ccccc3-c3nn[nH]n3)cc2)C(=O)c2ccccc2N1C (stereo not given) — 2000-fold lower, 0.05 µM
- CCCCC1Nc2ccc(Cc3ccccc3)cc2C(=O)N1Cc1ccc(-c2ccccc2-c2nn[nH]n2)cc1 (stereo not given) — 27-fold lower, 3.7 µM

Same assay, conditions: read-out: IC50

For `CCCCc1nc2ccc(C(C)(C)OC)cc2c(=O)n1Cc1ccc(-c2ccccc2-c2nn[nH]n2)cc1` [CL-329167], the IC50 was 0.006 µM.
